Experimental data published in PMC5298231, “The Malaria Parasite's Lactate Transporter PfFNT Is the Target of Antiplasmodial Compounds Identified in Whole Cell Phenotypic Screens” (PLoS Pathogens, 2017).
Read-outs that look alike come from different tables or passages of the source.

Tested on: erythrocytes infected with 3D7 trophozoites
Type: cell-based, Plasmodium falciparum
Settings: 6 μM

Compound: COc1ccc2c(c1)OC(O)(C(F)(F)C(F)(F)F)CC2=O (stereo not drawn) [MMV007839]
- ESFG log2 ratio (+MMV007839/-MMV007839) (Av 1hr): 0.4045
- EVGG log2 ratio (+MMV007839/-MMV007839) (Av 1hr): 0.01776
- Erythrose 4-phosphate log2 ratio (+MMV007839/-MMV007839) (Av 1hr): -0.3514
- FAD log2 ratio (+MMV007839/-MMV007839) (Av 1hr): -0.08791
- FMN log2 ratio (+MMV007839/-MMV007839) (Av 1hr): -0.2425
- Farnesyl diphosphate log2 ratio (+MMV007839/-MMV007839) (Av 1hr): -0.0002912
- Folate log2 ratio (+MMV007839/-MMV007839) (Av 1hr): -0.2316
- Fructose-1-6-bisphosphate log2 ratio (+MMV007839/-MMV007839) (Av 1hr): 1.122
- Fructose-6-Phosphate log2 ratio (+MMV007839/-MMV007839) (Av 1hr): 0.08818
- GDP log2 ratio (+MMV007839/-MMV007839) (Av 1hr): -0.6846
- GDP-mannose log2 ratio (+MMV007839/-MMV007839) (Av 1hr): 0.01571
- GMP log2 ratio (+MMV007839/-MMV007839) (Av 1hr): -1.125
- GTP log2 ratio (+MMV007839/-MMV007839) (Av 1hr): -0.5732
- Geranylgeranyl pyrophosphate log2 ratio (+MMV007839/-MMV007839) (Av 1hr): -0.5786
- Gluconate log2 ratio (+MMV007839/-MMV007839) (Av 1hr): 0.1947
- Glucose-6-Phosphate log2 ratio (+MMV007839/-MMV007839) (Av 1hr): -0.1863
- Glutamate log2 ratio (+MMV007839/-MMV007839) (Av 1hr): 0.1005
- Glutamine log2 ratio (+MMV007839/-MMV007839) (Av 1hr): 0.7703
- Glutathione disulfide log2 ratio (+MMV007839/-MMV007839) (Av 1hr): 0.1943
- Glutathione log2 ratio (+MMV007839/-MMV007839) (Av 1hr): -0.1919
- Glyceraldehyde 3-phosphate log2 ratio (+MMV007839/-MMV007839) (Av 1hr): -0.7606
- Glycerone phosphate log2 ratio (+MMV007839/-MMV007839) (Av 1hr): 0.5926
- HLD log2 ratio (+MMV007839/-MMV007839) (Av 1hr): -0.3486
- HVDD log2 ratio (+MMV007839/-MMV007839) (Av 1hr): -0.6691
- Histidine log2 ratio (+MMV007839/-MMV007839) (Av 1hr): 0.5758
- Homoserine log2 ratio (+MMV007839/-MMV007839) (Av 1hr): 0.3097
- Hydroxy-L-proline log2 ratio (+MMV007839/-MMV007839) (Av 1hr): 0.2443
- Hypoxanthine log2 ratio (+MMV007839/-MMV007839) (Av 1hr): 0.3704
- IDP log2 ratio (+MMV007839/-MMV007839) (Av 1hr): -0.1758
- IMP log2 ratio (+MMV007839/-MMV007839) (Av 1hr): -0.02277
- Inosine log2 ratio (+MMV007839/-MMV007839) (Av 1hr): 0.5137
- Isoleucine log2 ratio (+MMV007839/-MMV007839) (Av 1hr): 0.3056
- LD log2 ratio (+MMV007839/-MMV007839) (Av 1hr): 0.3825
- Lactate log2 ratio (+MMV007839/-MMV007839) (Av 1hr): 2.358
- Leucine log2 ratio (+MMV007839/-MMV007839) (Av 1hr): 0.1553
- Lysine log2 ratio (+MMV007839/-MMV007839) (Av 1hr): 1.68
- Malate log2 ratio (+MMV007839/-MMV007839) (Av 1hr): 0.1358
- Mannitol log2 ratio (+MMV007839/-MMV007839) (Av 1hr): 0.0108
- Methionine log2 ratio (+MMV007839/-MMV007839) (Av 1hr): 0.2615
- Myristic acid log2 ratio (+MMV007839/-MMV007839) (Av 1hr): 0.2261
- N-Acetyl-glutamate log2 ratio (+MMV007839/-MMV007839) (Av 1hr): -0.007377
- N-Carbamoyl-L-aspartate log2 ratio (+MMV007839/-MMV007839) (Av 1hr): -1.378
- NAD+ log2 ratio (+MMV007839/-MMV007839) (Av 1hr): 0.03204
- NADH log2 ratio (+MMV007839/-MMV007839) (Av 1hr): -1.36
- NADP+ log2 ratio (+MMV007839/-MMV007839) (Av 1hr): -0.2617
- Octoluse Bisphosphate log2 ratio (+MMV007839/-MMV007839) (Av 1hr): 1.912
- Ornithine log2 ratio (+MMV007839/-MMV007839) (Av 1hr): 0.2172
- Orotate log2 ratio (+MMV007839/-MMV007839) (Av 1hr): -1.216
- Orotidine 5-phosphate log2 ratio (+MMV007839/-MMV007839) (Av 1hr): -1.5
- Orotidine log2 ratio (+MMV007839/-MMV007839) (Av 1hr): -0.4366
- PAEF log2 ratio (+MMV007839/-MMV007839) (Av 1hr): -0.4364
- PAVH log2 ratio (+MMV007839/-MMV007839) (Av 1hr): -1.011
- PD log2 ratio (+MMV007839/-MMV007839) (Av 1hr): 0.2765
- PDAV log2 ratio (+MMV007839/-MMV007839) (Av 1hr): 0.344
- PE log2 ratio (+MMV007839/-MMV007839) (Av 1hr): 1.21
- PEE log2 ratio (+MMV007839/-MMV007839) (Av 1hr): 0.2418
- PHF log2 ratio (+MMV007839/-MMV007839) (Av 1hr): 1.069
- PPVQ log2 ratio (+MMV007839/-MMV007839) (Av 1hr): 0.02129
- PVNF log2 ratio (+MMV007839/-MMV007839) (Av 1hr): -0.3384
- PVQ log2 ratio (+MMV007839/-MMV007839) (Av 1hr): 0.8749
- PVQA log2 ratio (+MMV007839/-MMV007839) (Av 1hr): -0.7385
- Pantothenate log2 ratio (+MMV007839/-MMV007839) (Av 1hr): -0.01312
- Phenylalanine log2 ratio (+MMV007839/-MMV007839) (Av 1hr): 0.1979
- Phosphoenolpyruvate log2 ratio (+MMV007839/-MMV007839) (Av 1hr): 0.299
- Pipecolate log2 ratio (+MMV007839/-MMV007839) (Av 1hr): 0.4539
- Proline log2 ratio (+MMV007839/-MMV007839) (Av 1hr): 0.1646
- Pyridoxine log2 ratio (+MMV007839/-MMV007839) (Av 1hr): 0.1656
- Pyruvate log2 ratio (+MMV007839/-MMV007839) (Av 1hr): 1.42
- Ribose-5-phosphate log2 ratio (+MMV007839/-MMV007839) (Av 1hr): 0.9115
- S-Adenosyl-L-homocysteine log2 ratio (+MMV007839/-MMV007839) (Av 1hr): -0.1282
- SDGLA log2 ratio (+MMV007839/-MMV007839) (Av 1hr): -0.148
- SFGD log2 ratio (+MMV007839/-MMV007839) (Av 1hr): -0.0354
- Sedoheptoluse bisphosphate log2 ratio (+MMV007839/-MMV007839) (Av 1hr): 0.6095
- Sedoheptulose-1/7-phosphate log2 ratio (+MMV007839/-MMV007839) (Av 1hr): 0.1578
- Serine log2 ratio (+MMV007839/-MMV007839) (Av 1hr): 0.004434
- Succinate log2 ratio (+MMV007839/-MMV007839) (Av 1hr): 0.4975
- Succinate semialdehyde log2 ratio (+MMV007839/-MMV007839) (Av 1hr): -0.3802
- TNVK log2 ratio (+MMV007839/-MMV007839) (Av 1hr): -0.9736
- Threonine log2 ratio (+MMV007839/-MMV007839) (Av 1hr): 0.4202
- Tryptophan log2 ratio (+MMV007839/-MMV007839) (Av 1hr): 0.09509
- Tyrosine log2 ratio (+MMV007839/-MMV007839) (Av 1hr): 0.1697
- UDP log2 ratio (+MMV007839/-MMV007839) (Av 1hr): -0.1565
- UDP-N-acetyl-D-glucosamine log2 ratio (+MMV007839/-MMV007839) (Av 1hr): 0.0845
- UDP-glucose log2 ratio (+MMV007839/-MMV007839) (Av 1hr): -0.08513
- UMP log2 ratio (+MMV007839/-MMV007839) (Av 1hr): -0.3602
- Uracil log2 ratio (+MMV007839/-MMV007839) (Av 1hr): -0.4869
- Uric Acid log2 ratio (+MMV007839/-MMV007839) (Av 1hr): 0.02649
- VD log2 ratio (+MMV007839/-MMV007839) (Av 1hr): 1.818
- Valine log2 ratio (+MMV007839/-MMV007839) (Av 1hr): 0.1364
- Xanthine log2 ratio (+MMV007839/-MMV007839) (Av 1hr): 0.3309
- dADP log2 ratio (+MMV007839/-MMV007839) (Av 1hr): -0.3244
- dATP log2 ratio (+MMV007839/-MMV007839) (Av 1hr): 0.05147
- dCDP log2 ratio (+MMV007839/-MMV007839) (Av 1hr): 0.3024
- dGMP log2 ratio (+MMV007839/-MMV007839) (Av 1hr): 0.08489
- dTMP log2 ratio (+MMV007839/-MMV007839) (Av 1hr): -0.02247
- dTTP log2 ratio (+MMV007839/-MMV007839) (Av 1hr): 0.2046
- dUMP log2 ratio (+MMV007839/-MMV007839) (Av 1hr): 1.26
- myo-Inositol log2 ratio (+MMV007839/-MMV007839) (Av 1hr): -0.07002
- sn-Glycerol 3-phosphate log2 ratio (+MMV007839/-MMV007839) (Av 1hr): 1.379
- sn-glycero-3-Phospho-1-inositol log2 ratio (+MMV007839/-MMV007839) (Av 1hr): -0.128
- Hexose-phosphate log2 ratio (+MMV007839/-MMV007839) (Av 1hr, medRt 15.0954): -0.2585
- 6-Phospho-D-gluconate log2 ratio (+MMV007839/-MMV007839) (Av 1hr, medRt 16.8944): -0.386
- Hexose-phosphate log2 ratio (+MMV007839/-MMV007839) (Av 1hr, medRt 17.0788): -1.607
- 6-Phospho-D-gluconate log2 ratio (+MMV007839/-MMV007839) (Av 1hr, medRt 17.4636): -0.04985
- 1-3 (2-3)-diphopshateglycerate log2 ratio (+MMV007839/-MMV007839) (Av 3hr): 0.8355
